Measurements: US20200231562A1, “NOVEL MACROLIDE ANTIBIOTICS” (HELMHOLTZ-ZENTRUM FÜR INFEKTIONSFORSCHUNG GMBH, priority 2014, published 2020)
≈ marks a conversion by molar mass, not a printed value. Read-outs that look alike come from different tables or passages of the source. Marks after values point to notes of the source that are not given here.

Columns and labels:
[1] = tested on: S. aureus N315 mutant Mt50DscA.5; assay: Susceptibility (MIC) of Disciformycin A-resistant mutant; type: cell-based; conditions: Staphylococcus aureus
[2] = tested on: S. aureus N315 wildtype (WT); assay: Susceptibility (MIC) of S. aureus N315 wildtype; type: cell-based; conditions: Staphylococcus aureus
[3] = tested on: S. aureus N315 mutant Mt50DscA.6; assay: Susceptibility (MIC) of Disciformycin A-resistant mutant; type: cell-based; conditions: Staphylococcus aureus
[4] = tested on: S. aureus N315 mutant Mt50DscA.1; assay: as above; type: cell-based; conditions: Staphylococcus aureus
[5] = tested on: S. aureus N315 mutant Mt50DscA.3; assay: as above; type: cell-based; conditions: Staphylococcus aureus
[6] = tested on: Mycobacterium sp. DSM 43270; assay: MIC by microbroth dilution; type: cell-based; conditions: 16 h, 30° C., n.i. = no inhibition up to 67 μg/ml
Experimental: (§1) Bacterial strains. Bacterial wildtype strains used in susceptibility assays were either part of HZI's strain collection or purchased from the German Collection of Microorgansims and Cell Cultures (Deutsche Sammlung von Mikroorganismen und Zellkulturen, DSMZ).
(§2) Minimum inhibitory concentration (MIC) was determined by microbroth dilution. In brief, overnight cultures of bacteria (EBS medium) were diluted to OD600 0.01. Disciformycin A (1) or B (2) dissolved in DMSO was added directly to the cultures in 96-well plates (Sarstedt, flat bottom) in duplicate and the compound was tested in serial dilution. […] After 16 h incubation at 900 rpm and 30° C. on a microplate shaker (Titramax, Heidolph) absorbance at 600 nm was measured using a microplate reader (POLARstar Omega, BMG Labtech). MIC values were determined by sigmoidal curve fitting.

[7] = tested on: Paenibacillus polymyxa DSM 36; assay: MIC by microbroth dilution; type: cell-based; conditions: 16 h, 30° C., n.i. = no inhibition up to 67 μg/ml
Experimental: as §1, §2

Bacillus subtilis DSM 10 = assay: MIC by microbroth dilution; type: cell-based; conditions: 16 h, 30° C., n.i. = no inhibition up to 67 μg/ml
Experimental: as §1, §2

[8] = tested on: Chromobacterium violaceum DSM 30191; assay: MIC by microbroth dilution; type: cell-based; conditions: 16 h, 30° C., n.i. = no inhibition up to 67 μg/ml
Experimental: as §1, §2

[9] = tested on: Nocardioides simplex DSM 20130; assay: MIC by microbroth dilution; type: cell-based; conditions: 16 h, 30° C., n.i. = no inhibition up to 67 μg/ml
Experimental: as §1, §2

[10] = tested on: Staphylococcus aureus DSM 346; assay: MIC by microbroth dilution; type: cell-based; conditions: 16 h, 30° C., n.i. = no inhibition up to 67 μg/ml
Experimental: as §1, §2

[11] = tested on: Micrococcus luteus DSM 20030; assay: MIC by microbroth dilution; type: cell-based; conditions: 16 h, 30° C., n.i. = no inhibition up to 67 μg/ml
Experimental: as §1, §2

[12] = tested on: Escherichia coli DSM 1116; assay: MIC by microbroth dilution; type: cell-based; conditions: 16 h, 30° C., n.i. = no inhibition up to 67 μg/ml
Experimental: as §1, §2

[13] = tested on: Mycobacterium diemhoferi DSM 43524; assay: MIC by microbroth dilution; type: cell-based; conditions: 16 h, 30° C., n.i. = no inhibition up to 67 μg/ml
Experimental: as §1, §2

[14] = tested on: transformed lung epithelial A-549 cells; assay: MTT assay, cytotoxic activity; type: cell-based, human; conditions: incubation 24 or 48 hours
Experimental: (§3) The cytotoxic activity of gulmirecin A (3) and gulmirecin B (4) against human cells was evaluated in the well-established MTT assay using primary monocytes from human peripheral blood as well as transformed lung epithelial cell A-549 cell and leukemic Mono Mac 6 cells. Furthermore, 3 and 4 were tested against K-562, HUVEC, and HeLa cells.
(§4) The human monocytic cell line Mono Mac 6 was cultured in RPMI 1640 medium supplemented with FCS (10%, v/v), penicillin (100 U/ml), streptomycin (100 μg/ml), insulin (10 μg/ml), oxaloacetic acid (1 mM), sodium pyruvate (1 mM), and 1× non-essential amino acids at 37° C. and 5% CO2. A-549 cells (DSM ACC-107) were cultured in DMEM high glucose (4.5 g/l) medium supplemented with FCS (10% v/v), penicillin (100 U/ml) and streptomycin (100 μg/ml) at 37° C. in a 5% CO2 incubator. K-562 (DSM ACC 10) and HeLa cells (DSM ACC 57) were grown in RPMI 1640, whereas cells of HUVEC (ATCC CRL-1730) were cultured in DMEM medium. The respective media were supplemented with ultraglutamine 1 (10 ml/l), gentamicin sulfate (500 μl/l), and FCS (10% v/v).
(§5) Cells (3×10^5 Mono Mac 6, 1×10^5 A-549 cells, or 2×10^6 monocytes per well) were seeded in a 96-well plate in the respective medium (100 μl/well). Monocytes were allowed to adhere for 1.5 hours (37° C., 5% CO2) prior to treatment. Test compounds (0.3% DMSO as vehicle) were added to each well and samples were incubated for 48 hrs. Then, 20 μl of thiazolyl blue tetrazolium bromide (MTT, 5 mg/ml PBS) were added, and the incubation was continued at 37° C., 5% CO2 until blue staining of the vehicle control. Formazan formation was stopped by adding 100 μl of lysis buffer (SDS, 10%, w/v in 20 mM HCl) and samples were shaken overnight. Absorbance of each well was measured at 570 nm in a Multiskan™ microplate spectrophotometer (Thermo Scientific).

[15] = tested on: primary monocytes from human peripheral blood; assay: MTT assay, cytotoxic activity; type: cell-based; conditions: incubation 24 or 48 hours
Experimental: as §3
Human primary monocytes were isolated from leukocyte concentrates, obtained from the Institute of Transfusion Medicine at the University Hospital Jena, Germany. The concentrates were prepared from the blood of healthy adult human donors who had not taken any anti-inflammatory medication for the 10 days prior to blood donation, as described. In brief, freshly withdrawn peripheral blood was pretreated with citrate-phosphate-dextrose solution as anticoagulant and processed with the 2C+ protocol of the Atreus Whole Blood Processing System (Terum BCT). Peripheral blood mononuclear cells (PBMC) were isolated by dextran sedimentation and centrifugation on LSM 1077 lymphocyte separation medium (PAA Laboratories). For isolation of monocytes, the PBMC were washed twice with ice-cold phosphate buffered saline (PBS) and plated (density 2×10^7 cells/ml) in culture flasks (Greiner Bio-One) containing PBMC medium (RPMI 1640 medium supplemented with 100 U/ml penicillin, 100 μg/ml streptomycin and 2 mM L-glutamine) for 1.5 hours at 37° C., 5% CO2. Non-adherent cells were removed; adherent monocytes were scraped, washed with ice-cold PBS and resuspended in ice-cold PBS with a purity of >85%, defined by forward- and side-light scatter properties and detection of the CD14 surface molecule by flow cytometry (BD FACS Calibur). […]
Cells (3×10^5 Mono Mac 6, 1×10^5 A-549 cells, or 2×10^6 monocytes per well) were seeded in a 96-well plate in the respective medium (100 μl/well). […] Absorbance of each well was measured at 570 nm in a Multiskan™ microplate spectrophotometer (Thermo Scientific).

[16] = tested on: leukemic Mono Mac 6 cells; assay: MTT assay, cytotoxic activity; type: cell-based, human; conditions: incubation 24 or 48 hours
Experimental: as §3, §4
as §5, with “Test compounds (0.3% DMSO as vehicle) were added to each well and samples were incubated for 48 hrs.” left out

[17] = tested on: Staphylococcus aureus (MRSA) DSM-11822; assay: MIC by microbroth dilution; type: cell-based; conditions: Staphylococcus aureus, 16 h
Experimental: as §1, §2

[18] = tested on: S. aureus N315 mutant Mt50DscA.11; assay: Susceptibility (MIC) of Disciformycin A-resistant mutant; type: cell-based; conditions: Staphylococcus aureus
[19] = tested on: S. aureus N315 mutant Mt50DscA.4; assay: as above; type: cell-based; conditions: Staphylococcus aureus
[20] = tested on: S. aureus N315 Mt50DscA.9; assay: as above; type: cell-based; conditions: Staphylococcus aureus
[21] = tested on: S. aureus N315 mutant Mt50DscA.2; assay: as above; type: cell-based; conditions: Staphylococcus aureus
[22] = tested on: S. aureus Newman in PMA-differentiated human THP-1 cell line (macrophages); assay: Intra-macrophage activity; type: cell-based; conditions: at 8×MIC, 18 h, MOI 10, cfu counting
Excerpt: The PMA-differentiated human THP-1 cell line (macrophages) was used as cellular host for infection with S. aureus Newman at an MOI (multiplicity of infection) of 10. […] Intracellular bacteria were recovered and serial dilutions were streaked out on CASO-Agar for cfu counting. The reference drug rifampicin reduced the number of intracellular bacteria by ca. 4 logs (at 8×MIC).

[23] = tested on: S. aureus N315 mutant Mt50DscA.10; assay: Susceptibility (MIC) of Disciformycin A-resistant mutant; type: cell-based; conditions: Staphylococcus aureus
[24] = tested on: S. aureus N315 mutant Mt50DscA.8; assay: as above; type: cell-based; conditions: Staphylococcus aureus
[25] = tested on: Pseudomonas aeruginosa DSM 50071; assay: MIC by microbroth dilution; type: cell-based; conditions: 16 h, 30° C., n.i. = no inhibition up to 67 μg/ml
Experimental: as §1, §2

Compound: C/C=C(/C)[C@H]1C/C=C(\C)[C@@H](O[C@H]2O[C@H](CO)[C@@H](O)[C@@H]2O)[C@H](OC(=O)CC(C)C)C(=O)C[C@@H](OC)[C@H](C)C(=O)O1 [Compound 5, disciformycin C]
- MIC [1]: 32000 ng/mL (≈ 57500 nM)
- MIC [2]: 4000 ng/mL (≈ 7190 nM)
- MIC [3]: > 64000 ng/mL
- MIC [4]: > 64000 ng/mL
- MIC [5]: > 64000 ng/mL

Compound: C/C=C(/C)[C@H]1C/C=C(\C)[C@@H](O[C@H]2O[C@H](CO)[C@@H](O)[C@@H]2O)[C@H](OC(=O)CC(C)C)C(=O)C[C@@H](SC)[C@H](C)C(=O)O1 [Compound 6, disciformycin D]
- MIC [1]: 4000 ng/mL (≈ 6980 nM)
- MIC [2]: 500 ng/mL (≈ 873 nM)
- MIC [3]: 32000 ng/mL (≈ 55900 nM)
- MIC [4]: 32000 ng/mL (≈ 55900 nM)
- MIC [5]: 64000 ng/mL (≈ 112000 nM)

Compound: CN(C)[C@@H]1C(O)=C(C(N)=O)C(=O)[C@@]2(O)C(O)=C3C(=O)c4c(O)cccc4[C@@](C)(O)[C@H]3[C@H](O)[C@@H]12.Cl [Oxytetracyclin hydrochloride, reference compound]
- MIC [6]: 0.52^[a] μg/ml
- MIC [7]: 1.7^[a] μg/ml
- MIC (Bacillus subtilis DSM 10): 4.2^[a] μg/ml
- MIC [8]: 0.83^[a] μg/ml
- MIC [9]: 3.3^[a] μg/ml
- MIC [10]: 0.21^[a] μg/ml
- MIC [11]: 0.42^[a] μg/ml
- MIC [12]: 0.83^[a] μg/ml
- MIC [13]: ≤0.052^[a] μg/ml

Compound: CN[C@@H]1C[C@H]2O[C@@](C)([C@@H]1OC)n1c3ccccc3c3c4c(c5c6ccccc6n2c5c31)C(=O)NC4 [staurosporine, reference compound]
- cell viability / cytotoxicity (MTT) [14]: highly cytotoxic
- cell viability / cytotoxicity (MTT) [15]: highly cytotoxic
- cell viability / cytotoxicity (MTT) [16]: highly cytotoxic

Compound: CN[C@H](CC(C)C)C(=O)N[C@H]1C(=O)N[C@@H](CC(N)=O)C(=O)N[C@H]2C(=O)N[C@H]3C(=O)N[C@H](C(=O)N[C@H](C(=O)O)c4cc(O)cc(O)c4-c4cc3ccc4O)[C@H](O)c3ccc(c(Cl)c3)Oc3cc2cc(c3O[C@@H]2O[C@H](CO)[C@@H](O)[C@H](O)[C@H]2O[C@H]2C[C@](C)(N)[C@H](O)[C@H](C)O2)Oc2ccc(cc2Cl)[C@H]1O [Vancomycin, reference compound]
- MIC [17]: 830 ng/mL (≈ 573 nM)

Compound: CO[C@H]1/C=C/O[C@@]2(C)Oc3c(C)c(O)c4c(O)c(c(/C=N/N5CCN(C)CC5)c(O)c4c3C2=O)NC(=O)/C(C)=C\C=C\[C@H](C)[C@H](O)[C@@H](C)[C@@H](O)[C@@H](C)[C@H](OC(C)=O)[C@@H]1C [rifampicin, reference compound]
- MIC [18]: 1 ng/mL (≈ 1.22 nM)
- MIC [19]: 1 ng/mL (≈ 1.22 nM)
- MIC [20]: 1 ng/mL (≈ 1.22 nM)
- MIC [1]: 1 ng/mL (≈ 1.22 nM)
- MIC [21]: 5 ng/mL (≈ 6.08 nM)
- MIC ([2]; S. aureus N315 WT, read-out: MIC): 3 ng/mL (≈ 3.65 nM)
- reduction of the number of intracellular bacteria [22]: ca. 4 logs
- MIC [3]: 1 ng/mL (≈ 1.22 nM)
- MIC [4]: 3 ng/mL (≈ 3.65 nM)
- MIC [23]: 1 ng/mL (≈ 1.22 nM)
- MIC [5]: 3 ng/mL (≈ 3.65 nM)
- MIC [24]: 1 ng/mL (≈ 1.22 nM)

Compound: Gentamycin [reference compound]
- MIC [25]: 42.0^[b] μg/ml
